Assay [1] deals with Malassezia furfur CBS 7019. Kind of assay: MIC of oils and their components, microtitre plate assay. Particulars: substance alone. It counts as cell-based. As to the method:
(§1) Studies into anti-microbial action were performed using a microtitre plate cross-assay in triplicate against the type strain Malassezia furfur CBS 7019. The Fractional Inhibitory Concentration (FIC), the concentration of biocide in a mixture of biocides that inhibits growth, was determined for natural oils and a number of terpenoid components with the conventional anti-dandruff/anti-fungal agents.

The test system of assay [2] is Malassezia furfur CBS 7019. Nature of the assay: Microtitre plate cross-assay, Fractional Inhibitory Concentration (FIC) with conventional anti-dandruff/anti-fungal agents. In kind it is cell-based. Particulars: M. furfur CBS 7019; for FIC interpretation with Octopirox / FIC values with Octopirox: combination with Octopirox; for FIC values with Octopirox / FIC values with climbazole / FIC values with zinc pyrithione (ZnPTO): triplicate; for FIC interpretation with climbazole / FIC values with climbazole: combination with climbazole; for FIC interpretation with zinc pyrithione (ZnPTO) / FIC values with zinc pyrithione (ZnPTO): combination with zinc pyrithione (ZnPTO). As to the method: FIC values are for activity against M.furfur, such as CBS 7019, and are calculated in ways well-known in the art.
as §1
The definition of synergy is a combination of biocides in which the effect is greater than the sum of the expected effects of the individual components.

Molecules are shown by their SMILES.

Take `C=CCc1ccc(OC)cc1` [4-allylanisole]: the “MIC values for oils and their components” value in assay [1] is 0.25%. In assay [2], the “FIC interpretation with Octopirox” value is reported as “antagonistic (>1 antagonistic)”, the “FIC values with Octopirox” value was 2, the “FIC interpretation with climbazole” value is “antagonistic (>1 antagonistic)” and the “FIC values with climbazole” value is 2. In assay [2], the “FIC interpretation with zinc pyrithione (ZnPTO)” value (“FIC interpretation … (ZnPTO)” for short) is reported as “synergy (<1 synergy)” and the “FIC values with zinc pyrithione (ZnPTO)” value was 0.725.

As for `C=C1C2CCC(C2)C1(C)C` (centres unmarked) [Camphene], the “MIC values for oils and their components” value in assay [1] is greater than 8%.

In the case of `CC12CCC(CC1)C(C)(C)O2` [Cineole], in assay [1], the “MIC values for oils and their components” value was 1%.

Consider `C=CCc1ccc(O)c(OC)c1` [Eugenol, eugenol], for which the “MIC values for oils and their components” value in assay [1] is 0.01%. Also, in assay [2], the “FIC interpretation with Octopirox” value is given as “synergy (<1 synergy)”, the “FIC values with Octopirox” value turned out to be 0.567, the “FIC interpretation with climbazole” value is “synergy (<1 synergy)” and the “FIC values with climbazole” value is 0.56. In addition, in assay [2], the “FIC interpretation … (ZnPTO)” value was “synergy (<1 synergy)” and the “FIC values with zinc pyrithione (ZnPTO)” value is listed as 0.625.

On to `C=C(C)[C@H]1CC=C(C)CC1` [Limonene], for which the “MIC values for oils and their components” value in assay [1] is greater than 8%. In addition, in assay [2], the “FIC interpretation with Octopirox” value is reported as “antagonistic (>1 antagonistic)”, the “FIC values with Octopirox” value turned out to be 2, the “FIC interpretation with climbazole” value is “antagonistic (>1 antagonistic)” and the “FIC values with climbazole” value came to 2. Further, in assay [2], the “FIC interpretation … (ZnPTO)” value was “antagonistic (>1 antagonistic)” and the “FIC values with zinc pyrithione (ZnPTO)” value stood at 1.5.

As for `C=CC(C)(O)CCC=C(C)C` (centres unmarked) [Linalool, linalool], the “MIC values for oils and their components” value in assay [1] came out at 0.01%. Moreover, in assay [2], the “FIC interpretation with Octopirox” value is “antagonistic (>1 antagonistic)”, the “FIC values with Octopirox” value was determined as 2, the “FIC values with climbazole” value was 0.417 and the “FIC interpretation … (ZnPTO)” value is recorded as “synergy (<1 synergy)”. Besides, the “FIC values with zinc pyrithione (ZnPTO)” value in assay [2] turned out to be 0.625.

Turning to `CC1=CCC(O)(C(C)C)CC1` (centres unmarked) [terpinen-4-ol], in assay [2], the “FIC interpretation with Octopirox” value was “antagonistic (>1 antagonistic)”, the “FIC values with Octopirox” value was 2, the “FIC values with climbazole” value was determined as 0.37 and the “FIC interpretation … (ZnPTO)” value was “synergy (<1 synergy)”. Further, the “FIC values with zinc pyrithione (ZnPTO)” value in assay [2] was 0.83.

Turning to `CC1=CCC2CC1C2(C)C` (stereo not drawn) [α-pinene], the “MIC values for oils and their components” value in assay [1] amounted to 0.3%. Besides, in assay [2], the “FIC interpretation with Octopirox” value is on record as “antagonistic (>1 antagonistic)”, the “FIC values with Octopirox” value is listed as 2, the “FIC interpretation with climbazole” value is “antagonistic (>1 antagonistic)” and the “FIC values with climbazole” value was determined as 2. In assay [2], the “FIC interpretation … (ZnPTO)” value was “antagonistic (>1 antagonistic)” and the “FIC values with zinc pyrithione (ZnPTO)” value worked out at 1.42.

As for `CC1=CCC(C(C)(C)O)CC1` (stereo not drawn) [α-terpineol, alpha-terpineol], in assay [1], the “MIC values for oils and their components” value is 0.02%. Moreover, in assay [2], the “FIC values with Octopirox” value stood at 2, the “FIC interpretation with climbazole” value is recorded as “synergy (<1 synergy)”, the “FIC values with climbazole” value came to 0.625 and the “FIC interpretation … (ZnPTO)” value is on record as “antagonistic (>1 antagonistic)”. Besides, in assay [2], the “FIC values with zinc pyrithione (ZnPTO)” value is 2.

The values above are taken from patent US20060013796A1, “Hair and/or scalp treatment composition” (priority 2002, published 2006).
